Patent US7144721B1, “Treatment of wounds” (The Secretary of the State of Defense, Defence Science and …, priority 1999, dated 2006)
Values belong to the molecule of their own block, whether it stands above or below them. Square brackets hold non-standard residues; d marks the D form. Peptide text beside a SMILES is read from it. * marks the point of attachment. Sta = CC(C)C[C@H](N)[C@@H](O)CC(=O)O; Isovaleryl = CC(C)CC(=O)*

What was measured:
Format in all cases: biochemical
[1] = system: aspartyl activity of Lucilia sericata ES; experiment: Aspartyl proteinase activity of ES by FITC-casein hydrolysis at pH 5.0
Source text: (§1) In addition to the predominant serine proteinase activity detected in the ES secretions of Lucilia sericata other less predominant activity is present. The presence of an aspartyl and metalloproteinase activity has been detected though no cysteinyl activity is shown. […] This inhibition reflects the presence of an exopeptidase with a metalloproteinase enzymic nature.

[2] = system: fibronectin, laminin and collagens I, III, IV and V; experiment: Degradation of ECM/wound components by larval ES secretions
[3] = system: trypsin-like serine proteinase activity in Lucilia sericata ES; experiment: Tosyl-Gly-Pro-Arg-AMC hydrolysis by Lucilia sericata ES in the presence of APMSF and PMSF
Protocol: (§2) The activity of Lucilia sericata ES (0.25 μg) against Tosyl-Gly-Pro-Arg-AMC (a) and against Suc-Ala-Ala-Phe-AMC (b) in the presence of APMSF and PMSF was investigated using different presentations of ES as follows:
(a) • A. ES • B. ES pre-incubated with 0.025 mM APMSF • C. ES pre-incubated with 0.05 mM APMSF • D. ES pre-incubated with 1 mM PMSF
(§3) The results for (a) reveal the “trypsin-like” serine proteinase activity present in Lucilia sericata ES. The hydrolysis of Tosyl-Glyc-Pro-Arg-AMC (selective for the serine proteinases thrombin and plasmin) was inhibited by 1 mM PMSF and 0.05 mM APMSF. […] The results provide further evidence of the presence in ES of two different sub-classes of serine proteinase.

[4] = system: trypsin-like serine proteinase (aminobenzamidine elution peak) and flow-through proteinases of Lucilia sericata ES; experiment: Residual proteinase activity of aminobenzamidine agarose column fractions with APMSF
Protocol: The trypsin-like serine proteinase was purified by affinity chromatography of Lucilia sericata ES on aminobenzamidine agarose. The column matrix (1 ml) was equilibrated with 20 ml of 0.025M Tris-HCl buffer pH 8.0 containing 0.5M NaCl. The crude ES (0.5 ml, 70 μg/ml protein) was diluted with an equal volume of buffer before application to the column. Fractions (0.5 ml) were collected throughout the chromatography. After washing with 6.5 times column volume of buffer to remove unbound protein, the free aminobenzamidine ligand (2 ml 400 μM) was used to elicit the elution of bound material. Absorbance readings of the fractions at 280 nm was used to establish the positions of the unbound (flow-through) and bound peaks which were then collected for assay.
Aminobenzamidine agarose binds trypsin-like serine proteinases. Following application of larval enzyme secretions to the column, unbound material passed directly through and was collected as “flow-through” (peak I). The addition of free aminobenzamidine to the column buffer elicited elution of the bound proteinase (peak II). The unbound (flow-through) material contained proteinase activity unaffacted by APMSF (possibly including a a chrymotrypsin-like enzyme), whereas the activity in the aminobenzamidine elution peak was substantially abolished (80%) by APMSF, indicating purification of a trypsin-like serine proteinase activity.

[5] = system: Lucilia sericata ES serine proteinase activity; experiment: FITC-casein hydrolysis by Lucilia sericata ES at pH8 in the presence of PMSF/APMSF
Protocol: The activity of Lucilia sericata ES in FITC-casein hydrolysis at pH8 was investigated using different presentations of ES (0.25 μg) as follows:
The proteolytic activity of Lucilia sericata ES was inhibited following pre-incubation with the irreversible serine proteinase inhibitor PMSF. […] PMSF is dissolved in ethanol and the effect of the solvent on the activity of the ES was negligible. In contrast, approximately 50% of residual serine proteinase activity from ES was detected in the cases where the ES had been pre-incubated with the irreversible “trysin-like” specific inhibitor APMSF. Residual activity in the presence of APMSF indicates the presence of a chymotrypsin-like enzyme.

[6] = system: chymotrypsin-like serine proteinase activity in Lucilia sericata ES; experiment: Suc-Ala-Ala-Phe-AMC hydrolysis by Lucilia sericata ES in the presence of APMSF and PMSF
Protocol: as §2
(b) • E. ES • F. ES pre-incubated with 0.2 mM APMSF • G. ES pre-incubated with 1 mM PMSF
as §3

[7] = Lipase activity of ES secretions; conditions: pre-incubated with the inhibitor
[8] = system: exopeptidase (metalloproteinase activity) of Lucilia sericata ES; experiment: Leucine aminopeptide hydrolysis by Lucilia sericata ES
Source text: as §1

[9] = ES (0.25 μg) pre-incubated with 0.2 mM inhibitor
[10] = ES (0.25 μg) pre-incubated with 1 mM inhibitor

Compound: CC(C)CC(=O)N[C@H](C(=O)N[C@H](C(=O)N[C@@H](CC(C)C)[C@@H](O)CC(=O)N[C@@H](C)C(=O)N[C@@H](CC(C)C)[C@@H](O)CC(=O)O)C(C)C)C(C)C [pepstatin A] (Isovaleryl-VV[Sta]A[Sta]-OH)
inhibition of aspartyl activity [1]: successfully inhibited

Compound: N=C(N)c1ccc(CS(=O)(=O)F)cc1 [APMSF, 4-(amidinophenyl) methane sulphonyl fluoride]
inhibition of the degradation of laminin and fibronectin by larval secretions [2]: not significantly | residual activity (%) against Tosyl-Gly-Pro-Arg-AMC ([3]; ES (0.25 μg) pre-incubated with 0.025 mM inhibitor): 14.3% | residual activity (%) against Tosyl-Gly-Pro-Arg-AMC ([3]; ES (0.25 μg) pre-incubated with 0.05 mM inhibitor): 3.6% | activity abolished by inhibitor ([4]; aminobenzamidine elution peak (peak II)): 80% | effect of inhibitor on proteinase activity ([4]; unbound (flow-through) material (peak I)): unaffacted | activity (%) of ES in FITC-casein hydrolysis ([5]; ES (0.25 μg) pre-incubated with 0.04 mM inhibitor): 43.5% | activity (%) of ES in FITC-casein hydrolysis ([5]; ES (0.25 μg) pre-incubated with 0.12 mM inhibitor): 47% | activity (%) of ES in FITC-casein hydrolysis [5, 9]: 54% | residual serine proteinase activity from ES ([5]; ES pre-incubated with APMSF, summary over the concentrations): approximately 50% | residual activity (%) against Suc-Ala-Ala-Phe-AMC [6, 9]: 86.8%

Compound: O=S(=O)(F)Cc1ccccc1 [PMSF, phenyl methanesulphonyl fluoride]
inhibition of the degradation of laminin and fibronectin by larval secretions [2]: inhibited | lipase activity of ES secretions pre-incubated with inhibitor [7]: not detected | residual activity (%) against Tosyl-Gly-Pro-Arg-AMC [3, 10]: 0% | activity (%) of ES in FITC-casein hydrolysis [5, 9]: 13.8% | activity (%) of ES in FITC-casein hydrolysis ([5]; ES (0.25 μg) pre-incubated with 0.6 mM inhibitor): 18% | residual activity (%) against Suc-Ala-Ala-Phe-AMC [6, 10]: 1.3%

inhibition of leucine aminopeptide hydrolysis [8]: inhibited
Compound: c1cnc2c(c1)ccc1cccnc12 [1,10-phenanthroline]
inhibition of the degradation of laminin and fibronectin by larval secretions [2]: not significantly
